The test relates to Cynomolgus monkey. Briefly: Increase in HDL-C level in cynomolgus monkey plasma at 10 mg/kg, po administered as single dose measured after 1 or 7 days by HPLC method. Type of test: functional, Macaca fascicularis.

`O=C1CC(O)(C(F)(F)F)c2c(C3CCN(c4ccc(OC(F)F)cc4)CC3)n[nH]c2N1` (single isomer, unassigned) had an Activity of 644%.

The values above are taken from ChEMBL document CHEMBL4418265, “Piperidinylpyrazolopyridine derivatives” (2016).
